Counter-ions that a name gives are not always drawn.
Legend:
Human β2 adrenoceptor = Human β2 adrenoceptor (Homo sapiens, UniProt P07550); details: read-out: B2 binding affinity
Human M3 receptor = Human M3 receptor (Homo sapiens, UniProt P20309); details: read-out: M3 binding affinity
Sequence of Human M3 receptor (P20309 whole entry): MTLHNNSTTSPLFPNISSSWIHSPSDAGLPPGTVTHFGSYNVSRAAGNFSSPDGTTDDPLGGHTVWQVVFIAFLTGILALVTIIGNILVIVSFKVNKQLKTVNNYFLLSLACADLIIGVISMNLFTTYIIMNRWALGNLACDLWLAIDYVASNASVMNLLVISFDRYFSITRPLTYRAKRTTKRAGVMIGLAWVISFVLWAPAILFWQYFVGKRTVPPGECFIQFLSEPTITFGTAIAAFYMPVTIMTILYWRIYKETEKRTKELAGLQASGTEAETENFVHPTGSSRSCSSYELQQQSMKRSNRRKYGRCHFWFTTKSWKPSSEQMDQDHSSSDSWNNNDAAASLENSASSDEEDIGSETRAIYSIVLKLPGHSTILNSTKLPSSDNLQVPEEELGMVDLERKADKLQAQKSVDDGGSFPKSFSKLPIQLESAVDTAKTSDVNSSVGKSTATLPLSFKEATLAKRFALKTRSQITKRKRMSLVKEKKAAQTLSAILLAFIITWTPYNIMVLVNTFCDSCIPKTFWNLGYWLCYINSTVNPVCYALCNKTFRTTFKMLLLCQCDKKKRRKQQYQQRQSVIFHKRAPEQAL

Sequence of Human β2 adrenoceptor (P07550 whole entry): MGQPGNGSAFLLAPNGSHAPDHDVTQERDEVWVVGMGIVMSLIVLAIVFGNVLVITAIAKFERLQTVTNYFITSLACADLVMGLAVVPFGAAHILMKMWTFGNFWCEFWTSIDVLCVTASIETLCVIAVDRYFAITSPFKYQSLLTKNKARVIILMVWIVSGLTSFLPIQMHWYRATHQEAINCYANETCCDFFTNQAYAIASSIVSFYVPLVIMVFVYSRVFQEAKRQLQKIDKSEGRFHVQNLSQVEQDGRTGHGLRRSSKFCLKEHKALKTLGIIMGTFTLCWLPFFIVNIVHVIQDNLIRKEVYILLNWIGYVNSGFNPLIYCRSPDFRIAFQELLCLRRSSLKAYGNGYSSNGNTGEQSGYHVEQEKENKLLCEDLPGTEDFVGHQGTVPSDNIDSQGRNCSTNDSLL

O=C(COc1cccc([C@](O)(C(=O)OCC2CCN(Cc3ccccc3)CC2)c2ccccc2)c1)N[C@H]1C[C@H](NC(=O)c2ccc(CNC[C@H](O)c3ccc(O)c4[nH]c(=O)ccc34)c(F)c2F)C1 [Compound 134, (1-benzylpiperidin-4-yl)methyl (S)-2-(3-(2-(((1R,3S)-3-(2,3-difluoro-4-((((R)-2-hydroxy-2-(8-hydroxy-2-oxo-1,2-dihydroquinolin-5-yl)ethyl)amino)methyl)benzamido)cyclobutyl)amino)-2-oxoethoxy)phenyl)-2-hydroxy-2-phenylacetate]
IC50 (Human β2 adrenoceptor): < 0.3 nM
IC50 (Human M3 receptor): 0.3 to 3 nM

O=C(c1ccc(C(=O)N2CCC(COc3cccc([C@](O)(C(=O)OCC4CCN(Cc5ccccc5)CC4)c4ccccc4)c3)CC2)s1)N1CCC(CNC[C@H](O)c2ccc(O)c3[nH]c(=O)ccc23)CC1 [Compound 156, (1-Benzylpiperidin-4-yl)methyl (S)-2-hydroxy-2-(3-((1-(5-(4-((((R)-2-hydroxy-2-(8-hydroxy-2-oxo-1,2-dihydroquinolin-5-yl)ethyl)amino)methyl)piperidine-1-carbonyl)thiophene-2-carbonyl)piperidin-4-yl)methoxy)phenyl)-2-phenylacetate]
IC50 (Human β2 adrenoceptor): < 0.3 nM
IC50 (Human M3 receptor): < 0.3 nM

COc1cc(C(=O)NCC2CCN(C(=O)COc3cccc([C@](O)(C(=O)OCC4CCN(Cc5ccccc5)CC4)c4ccccc4)c3)CC2)ccc1CNC[C@H](O)c1ccc(O)c2[nH]c(=O)ccc12 [Compound 80, (1-benzylpiperidin-4-yl)methyl (S)-2-hydroxy-2-(3-(2-(4-((4-((((R)-2-hydroxy-2-(8-hydroxy-2-oxo-1,2-dihydroquinolin-5-yl)ethyl)amino)methyl)-3-methoxybenzamido)methyl)piperidin-1-yl)-2-oxoethoxy)phenyl)-2-phenylacetate]
IC50 (Human β2 adrenoceptor): < 0.3 nM
IC50 (Human M3 receptor): 0.3 to 3 nM

O=C(c1ccc(COc2cccc([C@](O)(C(=O)OCC3CCN(Cc4ccccc4)CC3)c3ccccc3)c2)cc1)N1CCC2(CC1)CN(C(=O)c1ccc(CCNC[C@H](O)c3ccc(O)c4[nH]c(=O)ccc34)cc1)C2 [Compound 119, (1-benzylpiperidin-4-yl)methyl (S)-2-hydroxy-2-(3-((4-(2-(4-(2-(((R)-2-hydroxy-2-(8-hydroxy-2-oxo-1,2-dihydroquinolin-5-yl)ethyl)amino)ethyl)benzoyl)-2,7-diazaspiro[3.5]nonane-7-carbonyl)benzyl)oxy)phenyl)-2-phenylacetate]
IC50 (Human β2 adrenoceptor): 0.3 to 3 nM
IC50 (Human M3 receptor): < 0.3 nM

O=C(COc1cccc([C@](O)(C(=O)OCC2CCN(Cc3ccccc3)CC2)c2ccccc2)c1)N1CCC(CCNC[C@H](O)c2ccc(O)c3[nH]c(=O)ccc23)CC1 [Compound 36A, (1-benzylpiperidin-4-yl)methyl (S)-2-hydroxy-2-(3-(2-(4-(2-(((R)-2-hydroxy-2-(8-hydroxy-2-oxo-1,2-dihydroquinolin-5-yl)ethyl)amino)ethyl)piperidin-1-yl)-2-oxoethoxy)phenyl)-2-phenylacetate]
IC50 (Human β2 adrenoceptor): 0.3 to 3 nM
IC50 (Human M3 receptor): 0.3 to 3 nM

O=C(COc1cccc([C@](O)(C(=O)OCC2CCN(Cc3ccccc3)CC2)c2ccccc2)c1)NCC1CCN(C(=O)c2ccc(CCNC[C@H](O)c3ccc(O)c4[nH]c(=O)ccc34)cc2)CC1 [Compound 97, (1-benzylpiperidin-4-yl)methyl (S)-2-hydroxy-2-(3-(2-(((1-(4-(2-(((R)-2-hydroxy-2-(8-hydroxy-2-oxo-1,2-dihydroquinolin-5-yl)ethyl)amino)ethyl)benzoyl)piperidin-4-yl)methyl)amino)-2-oxoethoxy)phenyl)-2-phenylacetate]
IC50 (Human β2 adrenoceptor): < 0.3 nM
IC50 (Human M3 receptor): 0.3 to 3 nM

O=C(Nc1cccc(C(O)(C(=O)OCC2CCN(Cc3ccccc3)CC2)c2ccccc2)c1)OCCCCCNC[C@H](O)c1ccc(O)c2[nH]c(=O)ccc12 (stereo partly drawn) [Compound 54, (1-benzylpiperidin-4-yl)methyl 2-hydroxy-2-(3-((((5-(((R)-2-hydroxy-2-(8-hydroxy-2-oxo-1,2-dihydroquinolin-5-yl)ethyl)amino)pentyl)oxy)carbonyl)amino)-phenyl)-2-phenylacetate bis hydrochloride]
IC50 (Human β2 adrenoceptor): < 0.3 nM
IC50 (Human M3 receptor): 0.3 to 3 nM

O=C(COc1cccc([C@](O)(C(=O)OCC2CCN(Cc3ccccc3)CC2)c2ccccc2)c1)N1CCC2(CC1)CN(C(=O)c1ccc(CCNC[C@H](O)c3ccc(O)c4[nH]c(=O)ccc34)cc1)C2 [Compound 96, (1-benzylpiperidin-4-yl)methyl (S)-2-hydroxy-2-(3-(2-(2-(4-(2-(((R)-2-hydroxy-2-(8-hydroxy-2-oxo-1,2-dihydroquinolin-5-yl)ethyl)amino)ethyl)benzoyl)-2,7-diazaspiro[3.5]nonan-7-yl)-2-oxoethoxy)phenyl)-2-phenylacetate]
IC50 (Human β2 adrenoceptor): < 0.3 nM
IC50 (Human M3 receptor): < 0.3 nM

O=C(OCC1CCN(Cc2ccccc2)CC1)C(O)(c1cccc(OCCCCCNC[C@H](O)c2ccc(O)c3[nH]c(=O)ccc23)c1)c1ccccc1Cl (stereo partly drawn) [Compound 6, (1-benzylpiperidin-4-yl)methyl 2-(2-chlorophenyl)-2-hydroxy-2-(3-((5-(((R)-2-hydroxy-2-(8-hydroxy-2-oxo-1,2-dihydroquinolin-5-yl)ethyl)amino)pentyl)oxy)phenyl)acetate]
IC50 (Human β2 adrenoceptor): < 0.3 nM
IC50 (Human M3 receptor): > 3 nM

CCc1cccc(C(O)(C(=O)OCC2CCN(Cc3ccccc3)CC2)c2cccc(OCCCCCNC[C@H](O)c3ccc(O)c4[nH]c(=O)ccc34)c2)c1 (stereo partly drawn) [Compound 11, (1-benzylpiperidin-4-yl)methyl 2-(3-ethylphenyl)-2-hydroxy-2-(3-((5-(((R)-2-hydroxy-2-(8-hydroxy-2-oxo-1,2-dihydroquinolin-5-yl)ethyl)amino)pentyl)oxy)phenyl)acetate]
IC50 (Human β2 adrenoceptor): < 0.3 nM
IC50 (Human M3 receptor): < 0.3 nM

O=C(COc1cccc([C@](O)(C(=O)OCC2CCN(Cc3ccccc3)CC2)c2ccccc2)c1)N[C@H]1CCN(C(=O)c2ccc(CCNC[C@H](O)c3ccc(O)c4[nH]c(=O)ccc34)cc2)C1 [Compound 107, (1-benzylpiperidin-4-yl)methyl (S)-2-hydroxy-2-(3-(2-(((S)-1-(4-(2-(((R)-2-hydroxy-2-(8-hydroxy-2-oxo-1,2-dihydroquinolin-5-yl)ethyl)amino)ethyl)benzoyl)pyrrolidin-3-yl)amino)-2-oxoethoxy)phenyl)-2-phenylacetate]
IC50 (Human β2 adrenoceptor): < 0.3 nM
IC50 (Human M3 receptor): 0.3 to 3 nM

COc1cc(NC(=O)COc2cccc([C@](O)(C(=O)OCC3CCN(Cc4ccccc4)CC3)c3ccccc3)c2)ccc1CNC[C@H](O)c1ccc(O)c2[nH]c(=O)ccc12 [Compound 42A, (S)-(1-benzylpiperidin-4-yl)methyl 2-hydroxy-2-(3-(2-((4-((((R)-2-hydroxy-2-(8-hydroxy-2-oxo-1,2-dihydroquinolin-5-yl)ethyl)amino)methyl)-3-methoxyphenyl)amino)-2-oxoethoxy)phenyl)-2-phenylacetate]
IC50 (Human β2 adrenoceptor): 0.3 to 3 nM
IC50 (Human M3 receptor): < 0.3 nM

O=C(c1ccc(CCNC[C@H](O)c2ccc(O)c3[nH]c(=O)ccc23)cc1)N1CCC2(CC1)CCN(C(=O)c1ccc(COc3cccc([C@](O)(C(=O)OCC4CCN(Cc5ccccc5)CC4)c4ccccc4)c3)cc1)CC2 [Compound 115, (1-benzylpiperidin-4-yl)methyl (S)-2-hydroxy-2-(3-((4-(9-(4-(2-(((R)-2-hydroxy-2-(8-hydroxy-2-oxo-1,2-dihydroquinolin-5-yl)ethyl)amino)ethyl)benzoyl)-3,9-diazaspiro[5.5]undecane-3-carbonyl)benzyl)oxy)phenyl)-2-phenylacetate]
IC50 (Human β2 adrenoceptor): 0.3 to 3 nM
IC50 (Human M3 receptor): 0.3 to 3 nM
